Reference: patent US8389512B2 (priority 2008, dated 2013)

Key:
[1] = 4 hr in-vivo study: meloxicam plasma concentration after oral delivery to rats; conditions: rat
Text: Male Sprague-Dawley rats, 250-300 g, received with a surgically implanted jugular catheter in place from (Harlan or Taconic Laboratories, USA). Animals were housed one per polycarbonate cage utilizing individual cage cards, with free access to food and water in accordance with NIH guidelines. Animals were quarantined at least 24 hrs after arrival prior to use and patency of the implanted catheter determined on the day of the test. Environmental controls for the animal room were set to maintain 18 to 26° C., a relative humidity of 30 to 70%, a minimum of 10 air changes/hour, and a 12-hour light/12-hour dark cycle. […] Each rat was weighed and the dose volume adjusted accordingly so that the effect of weight variability on results of study was eliminated and that each rat received 1 mg/kg dose.
Briefly, using a gradient elution with a Waters Symmetry C18 column (Waters Inc. USA), LCMS with selective reaction monitoring, protein precipitation of the plasma sample using acetonitrile where an LOQ of 50 ng/ml was achieved. Pharmacokinetic parameters were calculated from individual animal samples using appropriate software (PK Solutions 2.0, Summit Research Services, Montrose, Calif., USA).

[2] = 24 hr in-vivo study: meloxicam plasma concentration and pharmacokinetics after oral (gavage) administration to male rats; conditions: male rats, 1 mg/kg oral; for AUC (area under the plasma concentration-time curve at 24 h) / Cmax (peak plasma concentration) / F (bioavailability): mean N = 5; for Time to Reach 0.59 μg/ml: calculated by interpolation of time vs. concentration data
Text: Male Sprague-Dawley rats, 250-300 g, received with a surgically implanted jugular catheter in place from (Harlan or Taconic Laboratories, USA). Animals were housed one per polycarbonate cage utilizing individual cage cards, with free access to food and water in accordance with NIH guidelines. Animals were quarantined at least 24 hrs after arrival prior to use and patency of the implanted catheter determined on the day of the test. Environmental controls for the animal room were set to maintain 18 to 26° C., a relative humidity of 30 to 70%, a minimum of 10 air changes/hour, and a 12-hour light/12-hour dark cycle. Rats historically have been used in safety evaluation and PK screening studies and are recommended by appropriate regulatory agencies. […] Each rat was weighed and the dose volume adjusted accordingly so that the effect of weight variability on results of study was eliminated and that each rat received 1 mg/kg dose.
Pharmacokinetic parameters were calculated from individual animal samples using appropriate software (PK Solutions 2.0, Summit Research Services, Montrose, Calif., USA).

Q: Which results are given for `Cc1cnc(NC(=O)C2=C(O)c3ccccc3S(=O)(=O)N2C)s1.O=C(O)/C=C\C(=O)O` [Cocrystal 21, Meloxicam:Maleic Acid Cocrystal (1:1)]?
A: meloxicam plasma concentration ([1]; time 0 min): 0.3 µg/mL; meloxicam plasma concentration ([1]; time 15 min): 19.77 µg/mL; meloxicam plasma concentration ([1]; time 30 min): 26.13 µg/mL; meloxicam plasma concentration ([1]; time 45 min): 31.19 µg/mL; meloxicam plasma concentration ([1]; time 60 min): 32.84 µg/mL; meloxicam plasma concentration ([1]; time 120 min): 35.02 µg/mL; meloxicam plasma concentration ([1]; time 240 min): 42.12 µg/mL; meloxicam plasma concentration ([2]; N = 5, 0.25 hour): 0.62 µg/mL; meloxicam plasma concentration ([2]; N = 5, 0.5 hour): 0.72 µg/mL; AUC (area under the plasma concentration-time curve at 24 h) [2]: 25.3 µg·h/mL; Cmax (peak plasma concentration) [2]: 1.49 µg/mL; F (bioavailability) [2]: 39.8%; Time to Reach 0.59 μg/ml [2]: 13.4 min

Q: With `Cc1cnc(NC(=O)C2=C(O)c3ccccc3S(=O)(=O)N2C)s1.O=C(O)CC(=O)O` [Cocrystal 22, Meloxicam:Malonic Acid Cocrystal (1:1)] as the molecule, how does the meloxicam plasma concentration ([1]; time 0 min) read?
A: 0 µg/mL

Q: What about the meloxicam plasma concentration ([1]; time 15 min) of the same molecule?
A: 7.51 µg/mL

Q: What about the meloxicam plasma concentration ([1]; time 30 min) of the same molecule?
A: 22.15 µg/mL

Q: And the meloxicam plasma concentration ([1]; time 45 min)?
A: 27.00 µg/mL

Q: And the meloxicam plasma concentration ([1]; time 60 min)?
A: 29.33 µg/mL

Q: And the meloxicam plasma concentration ([1]; time 120 min)?
A: 29.57 µg/mL

Q: Which meloxicam plasma concentration ([1]; time 0 min) does the source give for `Cc1cnc(NC(=O)C2=C(O)c3ccccc3S(=O)(=O)N2C)s1.O=C(O)CO` [Cocrystal 28, Meloxicam:Glycolic Acid Cocrystal (1:1)] here?
A: 0 µg/mL

Q: And the meloxicam plasma concentration ([1]; time 15 min)?
A: 6.25 µg/mL

Q: What about the meloxicam plasma concentration ([1]; time 30 min) of the same molecule?
A: 16.88 µg/mL

Q: What about the meloxicam plasma concentration ([1]; time 45 min) of the same molecule?
A: 22.66 µg/mL

Q: What about the meloxicam plasma concentration ([1]; time 60 min) of the same molecule?
A: 27.26 µg/mL

Q: And the meloxicam plasma concentration ([1]; time 120 min)?
A: 20.77 µg/mL

Q: What about the meloxicam plasma concentration ([1]; time 240 min) of the same molecule?
A: 34.50 µg/mL

Q: With `Cc1cnc(NC(=O)C2=C(O)c3ccccc3S(=O)(=O)N2C)s1.Cc1cnc(NC(=O)C2=C(O)c3ccccc3S(=O)(=O)N2C)s1.O=C(O)C[C@H](O)C(=O)O` [Cocrystal 71, Meloxicam: L-Malic Acid Cocrystal (2:1)] as the molecule, how does the meloxicam plasma concentration ([1]; time 0 min) read?
A: 0 µg/mL

Q: And the meloxicam plasma concentration ([1]; time 15 min)?
A: 24.98 µg/mL

Q: What about the meloxicam plasma concentration ([1]; time 30 min) of the same molecule?
A: 32.05 µg/mL

Q: What about the meloxicam plasma concentration ([1]; time 45 min) of the same molecule?
A: 30.38 µg/mL

Q: And the meloxicam plasma concentration ([1]; time 60 min)?
A: 30.95 µg/mL

Q: And the meloxicam plasma concentration ([1]; time 240 min)?
A: 38.59 µg/mL

Q: Which meloxicam plasma concentration ([1]; time 0 min) does the source give for `Cc1cnc(NC(=O)C2=C(O)c3ccccc3S(=O)(=O)N2C)s1.O=C(O)c1ccc2ccccc2c1O` [Cocrystal 76, Meloxicam: 1-Hydroxy-2-Naphthoic Acid Cocrystal (1:1)] here?
A: 0 µg/mL

Q: What about the meloxicam plasma concentration ([1]; time 30 min) of the same molecule?
A: 39.24 µg/mL

Q: And the meloxicam plasma concentration ([1]; time 45 min)?
A: 45.29 µg/mL

Q: What about the meloxicam plasma concentration ([1]; time 60 min) of the same molecule?
A: 44.60 µg/mL

Q: What about the meloxicam plasma concentration ([1]; time 120 min) of the same molecule?
A: 46.24 µg/mL

Q: What about the meloxicam plasma concentration ([1]; time 240 min) of the same molecule?
A: 52.24 µg/mL

Q: What about the meloxicam plasma concentration ([2]; N = 5, 0.25 hour) of the same molecule?
A: 2.1 µg/mL

Q: And the meloxicam plasma concentration ([2]; N = 5, 0.5 hour)?
A: 2.49 µg/mL

Q: And the “AUC (area under the plasma concentration-time curve at 24 h)” value [2]?
A: 62.5 µg·h/mL

Q: And the “Cmax (peak plasma concentration)” value [2]?
A: 4.15 µg/mL

Q: What about the “F (bioavailability)” value [2] of the same molecule?
A: 98.3%

Q: And the “Time to Reach 0.59 μg/ml” value [2]?
A: 6.5 min

Q: For `Cc1cnc(NC(=O)C2=C(O)c3ccccc3S(=O)(=O)N2C)s1.O=C(O)c1ccccc1O` [Cocrystal 87, Meloxicam:Salicylic Acid Cocrystal Form I (1:1)], which meloxicam plasma concentration ([1]; time 0 min) is on record?
A: 0 µg/mL

Q: What about the meloxicam plasma concentration ([1]; time 15 min, listed as 87) of the same molecule?
A: 23.61 µg/mL

Q: What about the meloxicam plasma concentration ([1]; time 30 min, listed as 87) of the same molecule?
A: 26.76 µg/mL

Q: And the meloxicam plasma concentration ([1]; time 45 min, listed as 87)?
A: 28.85 µg/mL

Q: What about the meloxicam plasma concentration ([1]; time 60 min, listed as 87) of the same molecule?
A: 26.79 µg/mL

Q: And the meloxicam plasma concentration ([1]; time 120 min, listed as 87)?
A: 34.16 µg/mL

Q: What about the meloxicam plasma concentration ([1]; time 240 min, listed as 87) of the same molecule?
A: 36.54 µg/mL

Q: For `Cc1cnc(NC(=O)C2=C(O)c3ccccc3S(=O)(=O)N2C)s1.O=C(O)c1ccccc1O` [Cocrystal 88, Meloxicam:Salicylic Acid Cocrystal Form III (1:1)], which meloxicam plasma concentration ([1]; time 15 min) is on record?
A: 42.10 µg/mL

Q: And the meloxicam plasma concentration ([1]; time 30 min)?
A: 38.19 µg/mL

Q: What about the meloxicam plasma concentration ([1]; time 45 min) of the same molecule?
A: 40.48 µg/mL

Q: And the meloxicam plasma concentration ([1]; time 60 min)?
A: 41.18 µg/mL

Q: And the meloxicam plasma concentration ([1]; time 120 min)?
A: 40.50 µg/mL

Q: And the meloxicam plasma concentration ([1]; time 240 min)?
A: 49.13 µg/mL

Q: What about the meloxicam plasma concentration ([2]; N = 5, 0.25 hour) of the same molecule?
A: 0.7675 µg/mL

Q: What about the meloxicam plasma concentration ([2]; N = 5, 0.5 hour) of the same molecule?
A: 0.8975 µg/mL

Q: What about the “AUC (area under the plasma concentration-time curve at 24 h)” value [2] of the same molecule?
A: 29.6 µg·h/mL

Q: What about the “Cmax (peak plasma concentration)” value [2] of the same molecule?
A: 2.23 µg/mL

Q: What about the “F (bioavailability)” value [2] of the same molecule?
A: 46.5%

Q: And the “Time to Reach 0.59 μg/ml” value [2]?
A: 11.3 min

Q: For `Cc1cnc(NC(=O)C2=C(O)c3ccccc3S(=O)(=O)N2C)s1.O=C(O)CCCC(=O)O` [Cocrystal 92, Meloxicam:Glutaric Acid Cocrystal (1:1)], which meloxicam plasma concentration ([1]; time 0 min) is on record?
A: 0 µg/mL

Q: And the meloxicam plasma concentration ([1]; time 15 min)?
A: 5.61 µg/mL

Q: And the meloxicam plasma concentration ([1]; time 30 min)?
A: 13.16 µg/mL

Q: And the meloxicam plasma concentration ([1]; time 45 min)?
A: 19.11 µg/mL

Q: What about the meloxicam plasma concentration ([1]; time 60 min) of the same molecule?
A: 27.72 µg/mL

Q: And the meloxicam plasma concentration ([1]; time 120 min)?
A: 35.94 µg/mL

Q: What about the meloxicam plasma concentration ([1]; time 240 min) of the same molecule?
A: 55.35 µg/mL

Q: What does the source list for `Cc1cnc(NC(=O)C2=C(O)c3ccccc3S(=O)(=O)N2C)s1.Cc1cnc(NC(=O)C2=C(O)c3ccccc3S(=O)(=O)N2C)s1.O=C(O)/C=C/C(=O)O` [Cocrystal 143, Meloxicam:Fumaric Acid Cocrystal (2:1)]?
A: meloxicam plasma concentration ([1]; time 0 min): 0 µg/mL; meloxicam plasma concentration ([1]; time 15 min): 3.33 µg/mL; meloxicam plasma concentration ([1]; time 30 min): 6.69 µg/mL; meloxicam plasma concentration ([1]; time 45 min): 9.69 µg/mL; meloxicam plasma concentration ([1]; time 60 min): 13.39 µg/mL; meloxicam plasma concentration ([1]; time 120 min): 20.93 µg/mL; meloxicam plasma concentration ([1]; time 240 min): 30.23 µg/mL

Q: What does the source list for `Cc1cnc(NC(=O)C2=C(O)c3ccccc3S(=O)(=O)N2C)s1.Cc1cnc(NC(=O)C2=C(O)c3ccccc3S(=O)(=O)N2C)s1.O=C(O)CCC(=O)O` [Cocrystal 144, Meloxicam:Succinic Acid Cocrystal (2:1)]?
A: meloxicam plasma concentration ([1]; time 0 min): 0 µg/mL; meloxicam plasma concentration ([1]; time 15 min): 13.76 µg/mL; meloxicam plasma concentration ([1]; time 45 min): 32.54 µg/mL; meloxicam plasma concentration ([1]; time 60 min): 38.13 µg/mL; meloxicam plasma concentration ([1]; time 120 min): 44.02 µg/mL; meloxicam plasma concentration ([1]; time 240 min): 43.47 µg/mL; meloxicam plasma concentration ([2]; N = 5, 0.25 hour): 0.23 µg/mL; AUC (area under the plasma concentration-time curve at 24 h) [2]: 28.4 µg·h/mL; Cmax (peak plasma concentration) [2]: 1.78 µg/mL; F (bioavailability) [2]: 44.7%; Time to Reach 0.59 μg/ml [2]: 45.1 min

Q: For `Cc1cnc(NC(=O)C2=C(O)c3ccccc3S(=O)(=O)N2C)s1.Cc1cnc(NC(=O)C2=C(O)c3ccccc3S(=O)(=O)N2C)s1.O=C(O)CCCCC(=O)O` [Cocrystal 152, Meloxicam:Adipic Acid Cocrystal (2:1)], which meloxicam plasma concentration ([1]; time 0 min) is on record?
A: 0 µg/mL

Q: What about the meloxicam plasma concentration ([1]; time 15 min) of the same molecule?
A: 9.72. μg/ml

Q: What about the meloxicam plasma concentration ([1]; time 30 min) of the same molecule?
A: 22.85 µg/mL

Q: What about the meloxicam plasma concentration ([1]; time 45 min) of the same molecule?
A: 28.37 µg/mL

Q: And the meloxicam plasma concentration ([1]; time 60 min)?
A: 30.09 µg/mL

Q: And the meloxicam plasma concentration ([1]; time 120 min)?
A: 38.23 µg/mL

Q: What about the meloxicam plasma concentration ([1]; time 240 min) of the same molecule?
A: 47.85 µg/mL

Q: Which meloxicam plasma concentration ([1]; time 0 min) does the source give for `Cc1cnc(NC(=O)C2=C(O)c3ccccc3S(=O)(=O)N2C)s1.O=C(O)c1ccccc1` [Cocrystal 153, Meloxicam:Benzoic Acid Cocrystal (1:1)] here?
A: 0 µg/mL

Q: And the meloxicam plasma concentration ([1]; time 15 min)?
A: 21.94 µg/mL

Q: What about the meloxicam plasma concentration ([1]; time 30 min) of the same molecule?
A: 25.88 µg/mL

Q: What about the meloxicam plasma concentration ([1]; time 45 min) of the same molecule?
A: 28.30 µg/mL

Q: What about the meloxicam plasma concentration ([1]; time 60 min) of the same molecule?
A: 28.11 µg/mL

Q: And the meloxicam plasma concentration ([1]; time 120 min)?
A: 33.31 µg/mL

Q: And the meloxicam plasma concentration ([1]; time 240 min)?
A: 42.51 µg/mL

Q: Which meloxicam plasma concentration ([1]; time 0 min) does the source give for `Cc1cnc(NC(=O)C2=C(O)c3ccccc3S(=O)(=O)N2C)s1.Cc1cnc(NC(=O)C2=C(O)c3ccccc3S(=O)(=O)N2C)s1.O=C(O)CC(O)C(=O)O` [Cocrystal 154, Meloxicam:DL-Malic Acid Cocrystal (2:1)] here?
A: 0 µg/mL

Q: And the meloxicam plasma concentration ([1]; time 15 min)?
A: 11.19 µg/mL

Q: What about the meloxicam plasma concentration ([1]; time 30 min) of the same molecule?
A: 16.59 µg/mL

Q: And the meloxicam plasma concentration ([1]; time 45 min)?
A: 21.96 µg/mL

Q: What about the meloxicam plasma concentration ([1]; time 60 min) of the same molecule?
A: 24.90 µg/mL

Q: What about the meloxicam plasma concentration ([1]; time 120 min) of the same molecule?
A: 32.31 µg/mL

Q: What about the meloxicam plasma concentration ([1]; time 240 min) of the same molecule?
A: 49.72 µg/mL

Q: With `Cc1cnc(NC(=O)C2=C(O)c3ccccc3S(=O)(=O)N2C)s1.O=C(O)CCc1ccccc1` [Cocrystal 164, Meloxicam:Hydrocinnamic Acid Cocrystal (1:1)] as the molecule, how does the meloxicam plasma concentration ([1]; time 0 min) read?
A: 0 µg/mL

Q: And the meloxicam plasma concentration ([1]; time 15 min)?
A: 9.53 µg/mL

Q: What about the meloxicam plasma concentration ([1]; time 30 min) of the same molecule?
A: 11.42 µg/mL

Q: What about the meloxicam plasma concentration ([1]; time 45 min) of the same molecule?
A: 16.19 µg/mL

Q: What about the meloxicam plasma concentration ([1]; time 60 min) of the same molecule?
A: 18.24 µg/mL

Q: What about the meloxicam plasma concentration ([1]; time 120 min) of the same molecule?
A: 25.918 µg/mL

Q: What about the meloxicam plasma concentration ([1]; time 240 min) of the same molecule?
A: 45.70 µg/mL
